From the supplement of paper PMC8671470

Experiments:
Conditions in all cases: 72 h
HL-60 = assay: cell viability (% survival relative to DMSO control); higher = less cytotoxic
Description: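 8x8 drug-combination matrices (0-5000 nM; rosiglitazone and lestaurtinib 0-1000 nM) were run in HL-60 cells for 72 h with a CellTiter-Glo read-out. Survival is normalised to DMSO and 10 µM bortezomib and clipped at 100%. Bliss synergy was analysed in SynergyFinder.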

[1] = system: myeloid leukemia patient primary cells Pat.8; assay: area under dose-response curve (viability, 1 nM-10 uM) (fraction (0-1)); higher = more sensitive
Description: (§1)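 AUC (0–1, higher = more sensitive) of the 5-point dose–response (1 nM–10 µM, 72 h, CellTiter-Glo) in primary AML/CML patient mononuclear cells. 0.030103 is the floor for inactive compounds.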

[2] = system: myeloid leukemia patient primary cells Pat.4; assay: as above
Description: as §1

[3] = system: myeloid leukemia patient primary cells Pat.1; assay: as above
Description: as §1

[4] = system: myeloid leukemia patient primary cells Pat.12; assay: as above
Description: as §1

[5] = system: myeloid leukemia patient primary cells Pat.3; assay: as above
Description: as §1

[6] = system: myeloid leukemia patient primary cells Pat.14; assay: as above
Description: as §1

[7] = system: myeloid leukemia patient primary cells Pat.9; assay: as above
Description: as §1

[8] = system: myeloid leukemia patient primary cells Pat.7; assay: as above
Description: as §1

[9] = system: myeloid leukemia patient primary cells Pat.10; assay: as above
Description: as §1

[10] = system: myeloid leukemia patient primary cells Pat.13; assay: as above
Description: as §1

[11] = system: myeloid leukemia patient primary cells Pat.11; assay: as above
Description: as §1

[12] = system: myeloid leukemia patient primary cells Pat.5; assay: as above
Description: as §1

[13] = system: myeloid leukemia patient primary cells Pat.15; assay: as above
Description: as §1

[14] = system: myeloid leukemia patient primary cells Pat.6; assay: as above
Description: as §1

[15] = system: myeloid leukemia patient primary cells Pat.2; assay: as above
Description: as §1

CCn1c(=Cc2cccc[n+]2CC)sc(=C2Sc3ccccc3N2C)c1=O [MKT 077] + CN(C)CCNC(=O)c1cccn2c(=O)c3cc4ccccc4cc3nc12 [Bmh-21]
cell viability [%], HL-60
Conditions | drug1 concentration 5 nM | drug1 concentration 10 nM | drug1 concentration 50 nM | drug1 concentration 100 nM | drug1 concentration 500 nM | drug1 concentration 1000 nM | drug1 concentration 5000 nM
drug2 concentration 5 nM | 72.8 | > 100 | > 100 | > 100 | > 100 | > 100 | 82
drug2 concentration 10 nM | 97.1 | 92.4 | > 100 | > 100 | 62.4 | > 100 | > 100
drug2 concentration 50 nM | > 100 | 89.5 | > 100 | > 100 | 87.1 | > 100 | > 100
drug2 concentration 100 nM | > 100 | > 100 | > 100 | > 100 | 85.5 | > 100 | > 100
drug2 concentration 500 nM | 58.2 | 61.1 | 40.5 | 44.1 | 86 | 41.3 | 84.4
drug2 concentration 1000 nM | 31.2 | 58.3 | 48.1 | 66.9 | 18.6 | 34.4 | 54.3
drug2 concentration 5000 nM | 16.4 | 30.1 | -2.48 | 43.2 | 29.9 | 7.94 | 52

O=C(/C=C/c1ccc(O)c(O)c1)OCCc1ccccc1 [Caffeic acid phenethyl ester]
Conditions | area under dose-response curve
[1] | 0.297
[2] | 0.328
[3] | 0.155
[4] | 0.201
[5] | 0.467
[6] | 0.242
[7] | 0.563
[8] | 0.323
[9] | 0.539
[10] | 0.082
[11] | 0.14
[12] | 0.411
[13] | 0.145
[14] | 0.168

O=C1C(SCCO)=C(SCCO)C(=O)c2ccccc21
Conditions | area under dose-response curve
[1] | 0.174
[2] | 0.354
[3] | 0.378
[4] | 0.385
[5] | 0.33
[6] | 0.421
[7] | 0.455
[8] | 0.45
[10] | 0.147
[11] | 0.355
[12] | 0.455
[13] | 0.444
[14] | 0.187
[15] | 0.234

CO[C@H]1C[C@@H]2CC[C@@H](C)[C@@](O)(O2)C(=O)C(=O)N2CCCC[C@H]2C(=O)O[C@H]([C@H](C)C[C@@H]2CC[C@@H](OCCO)[C@H](OC)C2)CC(=O)[C@H](C)/C=C(\C)[C@@H](O)[C@@H](OC)C(=O)[C@H](C)C[C@H](C)/C=C/C=C/C=C/1C [Everolimus]
Conditions | area under dose-response curve
[1] | < 0.0301
[2] | 0.413
[3] | 0.122
[4] | < 0.0301
[5] | 0.746
[6] | 0.177
[7] | 0.319
[8] | 0.139
[9] | 0.604
[10] | 0.0367
[11] | < 0.0301
[12] | 0.808
[13] | 0.625
[14] | 0.0682
[15] | 0.0353

CN(Cc1cnc2nc(N)nc(N)c2n1)c1ccc(C(=O)N[C@@H](CCC(=O)O)C(=O)O)cc1 [Methotrexate]
Conditions | area under dose-response curve
[1] | < 0.0301
[2] | < 0.0301
[3] | < 0.0301
[4] | < 0.0301
[5] | 0.469
[6] | 0.306
[7] | 0.526
[8] | 0.399
[9] | 0.294
[10] | < 0.0301
[11] | < 0.0301
[12] | 0.384
[13] | < 0.0301
[14] | < 0.0301

CN1CCN(CCCN2c3ccccc3Sc3ccc(C(F)(F)F)cc32)CC1 [Trifluoperazine]
Conditions | area under dose-response curve
[1] | 0.106
[2] | 0.162
[3] | 0.209
[4] | 0.0812
[5] | 0.429
[6] | 0.294
[7] | 0.423
[8] | 0.517
[9] | 0.362
[10] | 0.182
[11] | 0.174
[12] | 0.36
[13] | 0.102
[14] | 0.187
[15] | 0.108

C[C@]12C=CC(=O)C=C1CC[C@@H]1[C@@H]2[C@@H](O)C[C@@]2(C)[C@H]1CC[C@]2(O)C(=O)CO [Prednisolone]
Conditions | area under dose-response curve
[1] | 0.0885
[3] | < 0.0301
[4] | < 0.0301
[5] | 0.227
[6] | < 0.0301
[7] | < 0.0301
[8] | < 0.0301
[9] | 0.678
[10] | < 0.0301
[12] | < 0.0301

CN(CCOc1ccc(Cc2sc(O)nc2O)cc1)c1ccccn1 [Rosiglitazone] + c1cc(-c2cnn3cc(-c4ccc(OCCN5CCCCC5)cc4)cnc23)ccn1 [Dorsomorphin]
cell viability [%], HL-60
Conditions | drug1 concentration 1 nM | drug1 concentration 5 nM | drug1 concentration 10 nM | drug1 concentration 50 nM | drug1 concentration 100 nM | drug1 concentration 500 nM | drug1 concentration 1000 nM
drug2 concentration 5 nM | > 100 | 95 | 74 | > 100 | > 100 | 94.8 | > 100
drug2 concentration 10 nM | > 100 | > 100 | > 100 | > 100 | > 100 | > 100 | > 100
drug2 concentration 50 nM | 94.3 | > 100 | > 100 | > 100 | 81.2 | > 100 | > 100
drug2 concentration 100 nM | 91.4 | > 100 | > 100 | > 100 | > 100 | > 100 | > 100
drug2 concentration 500 nM | 90.8 | > 100 | 84.6 | > 100 | > 100 | 60.9 | > 100
drug2 concentration 1000 nM | 88 | > 100 | 40.1 | > 100 | 86.7 | 87.6 | 96.3
drug2 concentration 5000 nM | 12.7 | 33.1 | 33.7 | 24.4 | 65.7 | 82.5 | 90.1

CN(CCOc1ccc(Cc2sc(O)nc2O)cc1)c1ccccn1 [Rosiglitazone]
Conditions | area under dose-response curve
[1] | < 0.0301
[2] | < 0.0301
[3] | < 0.0301
[4] | < 0.0301
[5] | 0.0764
[6] | < 0.0301
[7] | 0.139
[8] | < 0.0301
[9] | 0.0632
[10] | < 0.0301
[11] | < 0.0301
[12] | 0.0995
[14] | < 0.0301
[15] | < 0.0301

CO[C@H]1C[C@@H]2CC[C@@H](C)[C@@](O)(O2)C(=O)C(=O)N2CCCC[C@H]2C(=O)O[C@H]([C@H](C)C[C@@H]2CC[C@@H](OC(=O)C(C)(CO)CO)[C@H](OC)C2)CC(=O)[C@H](C)/C=C(\C)[C@@H](O)[C@@H](OC)C(=O)[C@H](C)C[C@H](C)/C=C/C=C/C=C/1C [Temsirolimus]
Conditions | area under dose-response curve
[1] | < 0.0301
[2] | 0.206
[3] | 0.0628
[4] | < 0.0301
[5] | 0.123
[6] | 0.142
[7] | 0.608
[8] | 0.146
[9] | 0.123
[10] | < 0.0301
[11] | < 0.0301
[12] | 0.798
[13] | 0.584
[14] | < 0.0301
[15] | < 0.0301

O=c1cc(N2CCOCC2)oc2c(-c3ccccc3)cccc12
Conditions | area under dose-response curve
[2] | 0.18
[3] | 0.14
[4] | < 0.0301
[5] | < 0.0301
[6] | 0.0381
[7] | 0.736
[8] | < 0.0301
[9] | 0.771
[10] | 0.0372
[11] | 0.0446
[12] | 0.782
[13] | 0.136
[14] | < 0.0301
[15] | 0.0446

Cc1cc2c(C(C)C)c(O)c(O)c(C=O)c2c(O)c1-c1c(C)cc2c(C(C)C)c(O)c(O)c(C=O)c2c1O [Gossypol]
Conditions | area under dose-response curve
[1] | 0.123
[2] | 0.117
[3] | 0.135
[4] | 0.0353
[5] | 0.428
[6] | 0.386
[7] | 0.803
[8] | 0.476
[9] | 0.641
[10] | 0.107
[11] | 0.135
[12] | 0.712
[13] | 0.0654
[14] | 0.0898
[15] | 0.112

CCN(CC)C(=S)SSC(=S)N(CC)CC [Disulfiram]
Conditions | area under dose-response curve
[1] | 0.503
[2] | 0.373
[3] | 0.398
[4] | 0.485
[5] | 0.164
[6] | 0.19
[7] | 0.257
[8] | 0.153
[10] | 0.412
[11] | 0.374
[12] | 0.303
[13] | 0.623
[14] | 0.414
[15] | 0.512
